Consider one compound from PubChem BioAssay (NCI).

Among the test systems are SK-MEL-2 melanoma; HCT-116 colon; SF-295 CNS; MOLT-4 leukemia; SW-620 colon; MALME-3M melanoma; CCRF-CEM leukemia; OVCAR-8 ovarian; NCI-H23 lung; EKVX NSCLC.
Assay in all cases: DTP human tumour cell line panel, 48 h

The structures appear in SMILES notation.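 96-well plates; 48 h exposure; 5 concentrations. Endpoints by linear interpolation between flanking doses. Not reached: highest tested concentration assigned. The concentration for full growth arrest is given as TGI.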

Turning to `C[C@]12CC[C@H](O)C=C1CC[C@@H]1[C@@H]2CC[C@]2(C)C(=N/O)/C(=C/c3ccncc3)C[C@@H]12`, the total growth inhibition concentration (TGI) in the experiment on SK-MEL-2 melanoma is 22.6 µM; in the experiment on HCT-116 colon it was 18.7 µM; in the experiment with SF-295 CNS, 39.5 µM; with MOLT-4 leukemia it was > 100 µM; in the experiment with SW-620 colon, > 100 µM; in the experiment on MALME-3M melanoma, 48.5 µM. For the same compound, the concentration for total growth inhibition (TGI) in the experiment with CCRF-CEM leukemia was 32.9 µM; with OVCAR-8 ovarian, 76 µM; in the experiment with NCI-H23 lung, 63.7 µM; in the experiment on EKVX NSCLC, > 100 µM.

The term TGI denotes the concentration at which net growth stops.
